Reference: patent publication US20100041661A1, “CASPASE INHIBITORS BASED ON PYRIDAZINONE SCAFFOLD” (LG Life Sciences Ltd., priority 2006, published 2010)

Legend:
caspase-8 = target: T1, caspase-8 (Homo sapiens, UniProt Q14790); test: Assay for the caspase inhibitory effect (fluorescent substrate AcDEVD-AFC); type: biochemical; conditions: pH 7.5; 2.1 nM caspase-8, 50 μM AcDEVD-AFC, 25° C., pH 7.50; read-out: Caspase-8 Kobs/[I] (converted)
T1 construct: p10 and p20 subunits (Thornberry, N. A. et al, Nature, 1992, 356, 768) were expressed in E. coli; made in house; host or cells: E. coli
Protocol: Caspase-1 and caspase-8 known as cysteine proteases in the form of α2β2 were expressed, purified, and activated by modifying a method known in Thornberry, N. A. et al, Nature, 1992, 356, 768; Thornberry, N. A. Methods in Enzymology, 1994, 244, 615; Walker, N. P. C. et al. Cell, 1994, 78, 343, and caspase-9 was also purified by a similar method, and the inhibitory activity against them was tested. Briefly describing, p10 and p20 subunits (Thornberry, N. A. et al, Nature, 1992, 356, 768) were expressed in E. coli and purified by nickel column and anionic exchange chromatography to give caspase-1, caspase-8 and caspase-9. The fluorescent substrates AcYVAD-AFC for thus obtained caspase-1, AcDEVD-AFC for caspase-8, and AcLEHD-AFC for caspase-9, were used for determining specific activity of the synthesized inhibitors. The enzyme reaction was carried out at 25° C. with various concentrations of the inhibitors in a buffer solution containing 50 mM HEPES (pH 7.50), 10% (w/v) sucrose, 0.1% (w/v) CHAPS, 100 mM NaCl, 1 mM EDTA, and 10 mM DTT in the presence of 50 μM AcYVAD-AFC for 10 nM caspase-1, 50 μM AcDEVD-AFC for 2.1 nM caspase-8, and 150 μM AcLEHD-AFC for 200 nM caspase-9. The inhibitory constants Ki and Kobs of the inhibitors were determined by measuring the reaction velocity with the time lapse using a fluorescent spectrometer and by obtaining the initial rate constant. Ki was calculated from the Lineweaver Burk Plot, and Kobs from the following Equation 1.
Kobs=−ln(1−At/Aoo)/t [Equation 1]
At means cleavage rate (%) at time t, and
Aoo means the maximum cleavage rate (%).
Spectra MAX GeminiXS Fluorescent Spectrometer of Molecular Device Co. was used at the excitation wavelength of 405 nm and the emission wavelength of 505 nm.

[1] = tested on: Jurkat cell (ATCC TIB-152); test: Fas antibody-induced apoptosis of Jurkat cells, WST-1 method; type: cell-based; conditions: Homo sapiens, apoptosis induced by Fas antibody, alive cells by WST-1
Protocol: The […] inhibitory activity of the inhibitors was determined by subjecting Jurkat cell (ATCC TIB-152) to apoptosis using Fas antibody (Upstate Biotech 05-201) and by detecting the color change according to the WST-1 method known in Francoeur A. M. and Assalian A. (1996) Biochemica 3, 19-25 to observe the amount of alive Jurkat cells when the cells were treated by the inhibitor. Spectra MAX 340 Spectrometer of Molecular Device Co. was used at the absorbance wavelength of 440 nm.

T1 sequence (Q14790 217-374 limits assumed, species assumed): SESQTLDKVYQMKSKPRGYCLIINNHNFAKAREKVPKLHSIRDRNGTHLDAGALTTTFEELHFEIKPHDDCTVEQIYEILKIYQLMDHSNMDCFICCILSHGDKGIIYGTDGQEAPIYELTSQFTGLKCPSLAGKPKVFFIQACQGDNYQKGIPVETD
T1 sequence (Q14790 385-479 limits assumed, species assumed): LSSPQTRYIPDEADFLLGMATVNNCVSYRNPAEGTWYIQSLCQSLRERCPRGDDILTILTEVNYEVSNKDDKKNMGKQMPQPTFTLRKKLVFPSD

Row | SMILES | kinact/KI (caspase-8) | IC50 [1]
1 | Cc1cc(Cc2ccccc2C(C)(C)C)c(=O)n(CC(=O)N[C@@H](CC(=O)O)C(=O)COc2c(F)c(F)cc(F)c2F)n1 [Example 4, (S)-3-{2-[5-(2-tert-Butyl-benzyl)-3-methyl-6-oxo-6H-pyridazin-1-yl]-acetylamino}-4-oxo-5-(2,3,5,6-tetrafluoro-phenoxy)-pentanoic acid] | 3330 M⁻¹ s⁻¹ | –
2 | CCC(C(=O)N[C@@H](CC(=O)O)C(=O)COc1c(F)c(F)cc(F)c1F)n1nc(Cc2ccccc2C(C)(C)C)ccc1=O (stereo partly drawn) [Example 6, (S)-3-{2-[3-(2-tert-Butyl-benzyl)-6-oxo-6H-pyridazin-1-yl]-butyrylamino}-4-oxo-5-(2,3,5,6-tetrafluoro-phenoxy)-pentanoic acid] | 2830 M⁻¹ s⁻¹ | –
3 | CCC(C(=O)N[C@@H](CC(=O)O)C(=O)COc1c(F)c(F)cc(F)c1F)n1nccc(Cc2ccccc2C(C)(C)C)c1=O (stereo partly drawn) [Example 5, (S)-3-{2-[5-(2-tert-Butyl-benzyl)-6-oxo-6H-pyridazin-1-yl]-butyrylamino}-4-oxo-5-(2,3,5,6-tetrafluoro-phenoxy)-pentanoic acid] | 33300 M⁻¹ s⁻¹ | 170 nM
4 | Cc1cc(Cc2ccccc2C(C)(C)C)c(=O)n(C(C)C(=O)N[C@@H](CC(=O)O)C(=O)COc2c(F)c(F)cc(F)c2F)n1 (stereo partly drawn) [Example 3, (S)-3-{2-[5-(2-tert-Butyl-benzyl)-3-methyl-6-oxo-6H-pyridazin-1-yl]-propionylamino}-4-oxo-5-(2,3,5,6-tetrafluoro-phenoxy)-pentanoic acid] | 6670 M⁻¹ s⁻¹ | –

Other lines, results leading:

Row | kinact/KI (caspase-8) | IC50 [1] | SMILES
5 | 91700 M⁻¹ s⁻¹ | 140 nM | CCC(C(=O)NC(CC(=O)O)C(=O)CF)n1nc(C)cc(Cc2ccccc2C(C)(C)C)c1=O (stereo not drawn) [Example 1, 3-{2-[5-(2-tert-Butyl-benzyl)-3-methyl-6-oxo-6H-pyridazin-1-yl]-butyrylamino}-5-fluoro-4-oxo-pentanoic acid]
6 | 33300 M⁻¹ s⁻¹ | 330 nM | CCC(C(=O)N[C@@H](CC(=O)O)C(=O)COc1c(F)c(F)cc(F)c1F)n1nc(C)cc(Cc2ccccc2C(C)(C)C)c1=O (stereo partly drawn) [Example 2, (S)-3-{2-[5-(2-tert-Butyl-benzyl)-3-methyl-6-oxo-6H-pyridazin-1-yl]-butyrylamino}-4-oxo-5-(2,3,5,6-tetrafluoro-phenoxy)-pentanoic acid]
